For one test, the target named is mTORC1 (Homo sapiens, UniProt P42345). The following applies: cited from earlier work.
Another test deals with PI3K. Particulars: cited from earlier work.
The subject of another test is primary T-cells. Put plainly: Rapamycin inhibition of Gold controlled nano-luciferase in anti-DLL3 CAR primary T-cells mixed with SHP-77 cells. Particulars: Concurrent Rx and Delay Rx; 24, 48, 72 hours. The test is classed as cell-based. The source says: A bicistronic vector with an anti-DLL3-CAR and nano-luceiferase under the control of an IFNg Gold element is made using the methods and materials described above. This bicistronic vector is transduced into primary T-cells, and transduced T-cells are obtained. When the transduced T-cells are mixed with SHP-77 cells that display the DLL3 antigen, the primary T-cells are activated and nano-luciferase is expressed.
The ability of rapamycin to inhibit the expression of nano-luciferase following activation of the primary T-cells was tested. Primary T-cells transduced with the bicistronic vector encoding the anti-DLL3 CAR and nano-luciferase were mixed with SHP-77 cells and then three treatment regimens were used. No rapamycin (NoRx), rapamycin added concurrently with the SHP-77 cells (Concurrent Rx), or rapamycin added 24 hours after SHP-77 cells was added (Delay Rx). New media was mixed with the cells every 24 hours. If the cells had received rapamycin in the media in the earlier time period, rapamycin was included with the media at subsequent media changes.
FIG. 22 normalizes the nano-luciferase activity to that of the NoRx sample. Levels of nano-luciferase were measured at 24 hours, 48 hours and 72 hours post mixing with SHP-77 cells.

For the compound `CO[C@H]1C[C@@H]2CC[C@@H](C)[C@@](O)(O2)C(=O)C(=O)N2CCCC[C@H]2C(=O)O[C@H]([C@H](C)C[C@@H]2CC[C@@H](OCCO)[C@H](OC)C2)CC(=O)[C@H](C)/C=C(\C)[C@@H](O)[C@@H](OC)C(=O)[C@H](C)C[C@H](C)/C=C/C=C/C=C/1C` [Everolimus], on mTORC1, the IC50 was 1.8 to 2.6 nM. As to `Cn1c(=O)n(-c2ccc(C(C)(C)C#N)cc2)c2c3cc(-c4cnc5ccccc5c4)ccc3ncc21` [NVP-BEZ235], the IC50 in the test with PI3K is […].

On to `CC(C)n1nc(-c2cccc(C(=O)NC3=NCCS3)c2)c2c(N)ncnc21` [PP30], for which the IC50 in the test on PI3K was […]. On to `COc1ccc(-c2ccc3c(N4CCOCC4)nc(N4C[C@@H](C)O[C@@H](C)C4)nc3n2)cc1CO` [KU-0063794], for which, in the test on PI3K, the IC50 was above 10000 nM. Take `CCC(=O)N1CCN(c2ccc(-n3c(=O)ccc4cnc5ccc(-c6cnc7ccccc7c6)cc5c43)cc2C(F)(F)F)CC1` [Torin 1]: in the test on PI3K, the IC50 was 250 nM.

As for `CO[C@H]1C[C@@H]2CC[C@@H](C)[C@@](O)(O2)C(=O)C(=O)N2CCCC[C@H]2C(=O)O[C@H]([C@H](C)C[C@@H]2CC[C@@H](O)[C@H](OC)C2)CC(=O)[C@H](C)/C=C(\C)[C@@H](O)[C@@H](OC)C(=O)[C@H](C)C[C@H](C)/C=C/C=C/C=C/1C` [Rapamycin/sirolimus], the “expression of nano-luciferase normalized to NoRx” value in the test with primary T-cells was “reduced expression of nano-luciferase”. As to `COc1ccc(-c2ccc3c(N4CCOC[C@@H]4C)nc(N4CCOC[C@@H]4C)nc3n2)cc1CO` [AZD8055], the IC50 in the test with PI3K is 3590 nM. For the compound `CNC(=O)Nc1ccc(-c2nc(N3CC4CCC(C3)O4)c3cnn(C4CCC5(CC4)OCCO5)c3n2)cc1` [WYE-125132], the IC50 is 0.19 nM on mTORC1 and 1180 nM in the test with PI3K. For `Nc1ccc(-c2ccc3ncc4ccc(=O)n(-c5cccc(C(F)(F)F)c5)c4c3c2)cn1` [Torin 2], the IC50 with PI3K was 4.68 nM.

What is called IC50 is the point on the concentration scale where inhibition reaches its midpoint.

The values above are taken from patent publication US12576135B2, “Compositions and methods for anti-TnMUC1 gold CAR t-cells” (Chimera Bioengineering, Inc., priority 2021, dated 2026).
